Test [1] concerns human-derived leukaemia MV-4-11 xenograft. The test is described as follows: Therapeutic effect against MV-4-11 xenograft in nude mice. Type of test: in vivo, Balb/c nude mice. To be noted: for Inhibition Rate (%): 4 mg/kg. The procedure:
(§1) This experiment is to investigate the in vivo inhibitory effect of II1E-01.HCl on growth of human-derived hepatic carcinoma HepG2 cell, human-derived breast carcinoma MDA-MB-231 cell, human-derived lung carcinoma H460 cell, human-derived colon carcinoma HCT-116 cell, human-derived […] MV-4-11 cell xenografts in nude mice.
(§2) Formulation of solvent control (5% anhydrous ethanol & 5% aqueous glucose solution): 2.5 mL anhydrous ethanol was added into a 50 mL tube, followed by addition of 47.5 mL 5% glucose solution for injection followed by shaking, and stored at room temperature before use.
(§3) Formulation of the preparations of the compounds to be tested: formulations with concentrations of 0.4 mg/mL and 0.6 mg/mL were prepared respectively. An appropriate amount of II1E-01.HCl was weighted and put into a 50 mL tube, followed by addition of corresponding volume of solvent to get the desired concentration and mixed using a vortex mixer. After the solid was dissolved completely, the solution was subpackaged into 4 mL vials and stored at refrigerated condition (2-8° C.) until use.
(§4) Experimental animals: Balb/c nude mice (male, six weeks old).
MV-4-11 cells were in vitro cultured to be proliferated. The cells in the log phase of growth were collected and resuspended in IMDM serum-free medium, and then implanted subcutaneously into the axilla of the right forelimb of nude mice. After 37 days, the tumor size reached about 270 mm^3. The mice bearing the tumor were grouped by randomized block method according to the tumor size into 3 groups, which contain 6 mice in each group and include the group of solvent control, group of positive control (Sunitinib 40 mg/kg), and group of the testing compound II1E-01.HCl (4 mg/kg QOD). In the positive control group, sunitinib was administered intragastrically once daily (QD). In the group of II1E-01.HCl, II1E-01.HCl was administered intravenously at tail once every other day (QOD). The animals were given the drugs for 21 days, during which the growth of tumor and the body weight of the mice were observed.
After continuously administering for 21 days (the 58th day after the implantation), the tumor weight and inhibition rate were calculated, and results are listed in Table 9. […] In the group of the testing compound II1E-01.HCl (4 mg/kg QOD), the tumor also completely disappeared at 14th day after administration, and the inhibition rate was 100.00% (P<0.01) at the end of the experiment.

In test [2] the test system is human hepatic carcinoma HepG2 xenograft. The test is described as follows: Therapeutic effect against HepG2 xenograft in nude mice. Type of test: in vivo, Balb/c nude mice. As to conditions: QOD × 14 d. The procedure: as §1, §2, §3, §4
HepG2 cells were in vitro cultured to be proliferated. The cells in the log phase of growth were collected and resuspended in DMEM serum-free medium, and then implanted subcutaneously into the axilla of the right forelimb of nude mice. After 11 days, the tumor size reached about 250 mm^3. The mice bearing the tumor were grouped according to the tumor size into 6 groups, including the group of solvent control, groups of positive controls (Rapamycin 10 mg/kg and Vinorelbine 8 mg/kg), and groups of low (2 mg/kg), middle (4 mg/kg) and high (6 mg/kg) dosages of the testing compound II1E-01.HCl. Each group was administered intravenously at tail. In the solvent control group, the solvent control solution was administered intravenously once every other day (QOD). In the low, middle and high dosage groups of II1E-01.HCl, II1E-01.HCl was administered intravenously once every other day (QOD). In the positive control groups, Rapamycin 10 mg/kg and Vinorelbine 8 mg/kg were administered once a week (QW). The animals were given the drugs for two weeks. In the two week time period, the growth of tumor and the body weight of the mice were observed.
Two weeks after administering (the 25th day after the implantation), the tumor weight and inhibition rate were calculated, and results are listed in Table 5.

The subject of test [3] is LoVo human colon carcinoma cell line. Briefly: In vitro antitumor activity assay (SRB), LoVo. Type of test: cell-based. As to conditions: Table 2, read-out: IC50, inhibition of cell proliferation, LoVo. An excerpt: HeLa human cervical carcinoma cell line, A-549 human non-small cell lung carcinoma cell line, NCI-H2228 human lung carcinoma cell line, NCI-H460 human lung carcinoma cell line, MDA-MB-231 human breast carcinoma cell line, MCF-7 human breast carcinoma cell line, Bel-7402 human hepatic carcinoma cell line, Hep3B human hepatic carcinoma cell line, QGY-7703 human hepatic carcinoma cell line, MV-4-11 human leukemic cell line, DAUDI human leukemic cell line, Jurkat human leukemic cell line, A498 renal carcinoma cell line, LoVo human colon carcinoma cell line, HCT1116 human colon carcinoma cell line, A431 human skin carcinoma cell line, PANC-1 human pancreatic carcinoma cell line, U87-MG human brain carcinoma cell line, SH-SY5Y human brain carcinoma cell line, RPMI-8226 human bone carcinoma cell line, HT1080 human fibrosarcoma cell line, PC-3 human prostatic carcinoma cell line, AGS human gastric adenocarcinoma cell line, and BGC-823 human gastric adenocarcinoma cell line were purchased from the Cell Bank of the Chinese Academy of Sciences.
The positive control is bufalin (formulated according to the common method), its purity is 98% or more by HPLC-UV and its structure is identified by NMR. The compounds to be tested and the positive control were diluted with normal saline with a concentration gradient of 10^−4 M, 10^−5 M, 10^−6 M, 10^−7 M and 10^−8 M.
According to cell growth rate, tumor cells in the log phase of growth were seeded into 96-well culture plates at 100 μL per well, and allowed to attach for 24 hours, followed by addition of a test compound or positive control at 10 μL per well. For each concentration, the test was carried out in triplicate wells. Solvent control wells with addition of normal saline into cell culture and a blank well containing only cell culture medium but without cells for zeroing were also included. The tumor cells were incubated for 72 hours at 37° C. under 5% CO2, and then the culture medium (RPMI-1640) was removed. The cells were fixed with 10% cool TCA by incubating for 1 h at 4° C., washed with distilled water for 5 times, and dried naturally in the air. A solution of SRB (Sigma) (4 mg/mL) in 1% glacial acetic acid was added at 100 μL per well, and the cells were stained for 15 minutes at room temperature, and the supernatant was discarded. The plates were washed for 5 times with 1% acetic acid, and dried in air. Finally, Tris solution was added at 150 μL per well, and the absorbance (A) was measured at a wavelength of 515 nm using a microplate reader. The growth inhibition on tumor cell proliferation was calculated according to the following equation:
Growth Inhibition (%)=[(Absorbance of negative control−Absorbance of blank)−(Absorbance of sample−Absorbance of blank)]/(Absorbance of negative control−Absorbance of blank)×100%
Drug concentration: 10 μM, 1 μM, 0.1 μM, 10 nM, 1 nM, 0.1 nM.
IC50 was fitted by GraphPad Prism 4.

Take `C[C@]12CC[C@H](OC(=O)NC3CCNCC3)C[C@H]1CC[C@@H]1[C@@H]2CC[C@]2(C)[C@@H](c3ccc(=O)oc3)CC[C@]12O.Cl` [II1E-01•HCl]: the “day after administration at which the tumor completely disappeared” value in test [1] (4 mg/kg iv QOD) was 14 days. Moreover, the “Tumor Weight(g) Mean ± SE” value in test [1] (4 mg/kg iv, QOD × 21 d) amounted to 0.0000 ± 0.0000 g; in test [2] (2 mg/kg iv), 0.3177 ± 0.0410 g; in test [2] (4 mg/kg iv) it was 0.0938 ± 0.0121 g; in test [2] (6 mg/kg iv), 0.0262 ± 0.0054 g. Also, the “Inhibition Rate (%)” value in test [1] (4 mg/kg iv, QOD × 21 d) is 100.00%; in test [1] (4 mg/kg iv, QOD × 21 d, listed as II1E-01.HCl) it was 100.00%; in test [2] (2 mg/kg iv, 2 mg/kg), 58.50%; in test [2] (2 mg/kg iv, listed as II1E-01.HCl, 2 mg/kg), 58.50%; in test [2] (4 mg/kg iv, 4 mg/kg), 87.75%; in test [2] (4 mg/kg iv, listed as II1E-01.HCl, 4 mg/kg) it was 87.75%. Besides, the “Inhibition Rate (%)” value in test [2] (6 mg/kg iv, 6 mg/kg) is on record as 96.58%; in test [2] (6 mg/kg iv, listed as II1E-01.HCl, 6 mg/kg) it was 96.58%.
As to `C[C@]12CC[C@H](O)C[C@H]1CC[C@@H]1[C@@H]2CC[C@]2(C)[C@@H](c3ccc(=O)oc3)CC[C@]12O` [bufalin, reference compound], the IC50 in test [3] came to 29.5 ± 1 nM.

Values taken from patent publication US20130005696A1, “BUFADIENOLIDE DERIVATIVES, PREPARING PROCESS THEREOF, COMPOSITION COMPRISING THE SAME AND THE USE THEREOF” (priority 2011, published 2013).
